≈ marks a conversion by molar mass, not a printed value.
What was measured:
Pseudomonas aeruginosa = test: Antibacterial activity against Pseudomonas aeruginosa ATCC 27853 after 12 hrs by serial plate dilution method; type: functional; conditions: ATCC 27853, 12 h
Escherichia coli = test: Antibacterial activity against Escherichia coli ATCC 25922 after 12 hrs by serial plate dilution method; type: functional; conditions: ATCC 25922, 12 h
Staphylococcus aureus = test: Antibacterial activity against Staphylococcus aureus ATCC 25923 after 12 hrs by serial plate dilution method; type: functional; conditions: ATCC 25923, 12 h
[1] = Cytotoxicity against mouse NIH/3T3 cells assessed as cell growth inhibition at 50 ug/mL after 48 hrs by MTT assay; type: cell-based, NIH3T3; conditions: read-out: GI
[2] = tested on: Mycobacterium tuberculosis; test: Antimycobacterial activity against Mycobacterium tuberculosis H37Rv after 5 days by fluorescence analysis; type: functional; conditions: 120 h

Row | SMILES | MIC (Pseudomonas aeruginosa) [µg/mL] | MIC (Escherichia coli) [µg/mL] | MIC (Staphylococcus aureus) [µg/mL] | inhibition at 48 h, 50 ug/mL [1] [%] | MIC [2] [µM]
1 | Cc1nn2c(/C=N/Nc3nc(-c4ccc(F)cc4)cs3)c(-c3ccc(Cl)cc3)nc2s1 | 50 (≈ 107 µM) | 25 (≈ 53.3 µM) | 25 (≈ 53.3 µM) | – | –
2 | Cc1ccc(-c2nc3sc(C)nn3c2/C=N/Nc2nc(-c3ccc(Cl)cc3)cs2)cc1 | 50 (≈ 108 µM) | 50 (≈ 108 µM) | 50 (≈ 108 µM) | – | –
3 | Cc1ccc(-c2csc(N/N=C/c3c(-c4ccc(C)cc4)nc4sc(C)nn34)n2)cc1 | 25 (≈ 56.2 µM) | 50 (≈ 112 µM) | 50 (≈ 112 µM) | – | –
4 | COc1ccc(-c2csc(N/N=C/c3c(-c4ccc(OC)cc4)nc4sc(C(F)(F)F)nn34)n2)cc1 | 25 (≈ 47.1 µM) | 12.5 (≈ 23.6 µM) | 25 (≈ 47.1 µM) | – | –
5 | COc1ccc(-c2csc(N/N=C/c3c(-c4ccc(C)cc4)nc4sc(C)nn34)n2)cc1 | 25 (≈ 54.3 µM) | 50 (≈ 109 µM) | 50 (≈ 109 µM) | – | –
6 | Fc1ccc(-c2csc(N/N=C/c3c(-c4ccc(Cl)cc4)nc4sc(C(F)(F)F)nn34)n2)cc1 | 6.25 (≈ 12 µM) | 6.25 (≈ 12 µM) | 12.5 (≈ 23.9 µM) | 15.9 | –
7 | Cc1ccc(-c2csc(N/N=C/c3c(-c4ccc(Cl)cc4)nc4sc(C)nn34)n2)cc1 | 50 (≈ 108 µM) | 50 (≈ 108 µM) | 50 (≈ 108 µM) | – | –
8 | COc1ccc(-c2nc3sc(C(F)(F)F)nn3c2/C=N/Nc2nc(-c3ccc(C)cc3)cs2)cc1 | 25 (≈ 48.6 µM) | 25 (≈ 48.6 µM) | 50 (≈ 97.2 µM) | 18.4 | –
9 | COc1ccc(-c2nc3sc(C(F)(F)F)nn3c2/C=N/Nc2nc(-c3ccc(F)cc3)cs2)cc1 | 25 (≈ 48.2 µM) | 50 (≈ 96.4 µM) | 50 (≈ 96.4 µM) | 18.9 | –
10 | Cc1ccc(-c2nc3sc(C)nn3c2/C=N/Nc2nc(-c3ccc(F)cc3)cs2)cc1 | 50 (≈ 111 µM) | 50 (≈ 111 µM) | 50 (≈ 111 µM) | 22.3 | –
11 | COc1ccc(-c2csc(N/N=C/c3ccc4c(c3)c3ccccc3n4C)n2)cc1OC | – | – | – | – | 21 (≈ 9.29 µg/mL)
12 | COc1ccc(-c2nc3sc(C)nn3c2/C=N/Nc2nc(-c3ccc([N+](=O)[O-])cc3)cs2)cc1 | 25 (≈ 50.9 µM) | 25 (≈ 50.9 µM) | 25 (≈ 50.9 µM) | – | –
13 | COc1ccc(-c2nc3sc(C)nn3c2/C=N/Nc2nc(-c3ccc(C)cc3)cs2)cc1 | 50 (≈ 109 µM) | 50 (≈ 109 µM) | 50 (≈ 109 µM) | – | –
14 | Cc1ccc(-c2nc3sc(C)nn3c2/C=N/Nc2nc(-c3ccc([N+](=O)[O-])cc3)cs2)cc1 | 12.5 (≈ 26.3 µM) | 6.25 (≈ 13.1 µM) | 12.5 (≈ 26.3 µM) | 23.3 | –
15 | O=[N+]([O-])c1ccc(-c2csc(N/N=C/c3c(-c4ccc(Cl)cc4)nc4sc(C(F)(F)F)nn34)n2)cc1 | 25 (≈ 45.5 µM) | 12.5 (≈ 22.7 µM) | 12.5 (≈ 22.7 µM) | – | –
16 | COc1ccc(-c2csc(N/N=C/c3c(-c4ccc(OC)cc4)nc4sc(C)nn34)n2)cc1 | 50 (≈ 105 µM) | 12.5 (≈ 26.2 µM) | 50 (≈ 105 µM) | – | –
17 | COc1ccc(-c2nc3sc(C)nn3c2/C=N/Nc2nc(-c3ccc(F)cc3)cs2)cc1 | 50 (≈ 108 µM) | 50 (≈ 108 µM) | 50 (≈ 108 µM) | – | –
18 | COc1ccc(-c2csc(N/N=C/c3c(-c4ccc(Cl)cc4)nc4sc(C)nn34)n2)cc1 | 50 (≈ 104 µM) | 25 (≈ 52 µM) | 50 (≈ 104 µM) | 20.8 | –
19 | FC(F)(F)c1nn2c(/C=N/Nc3nc(-c4ccc(Cl)cc4)cs3)c(-c3ccc(Cl)cc3)nc2s1 | 50 (≈ 92.7 µM) | 12.5 (≈ 23.2 µM) | 12.5 (≈ 23.2 µM) | – | –
20 | COc1ccc(-c2nc3sc(C(F)(F)F)nn3c2/C=N/Nc2nc(-c3ccc(Cl)cc3)cs2)cc1 | 50 (≈ 93.5 µM) | 50 (≈ 93.5 µM) | 50 (≈ 93.5 µM) | – | –
21 | Cc1nn2c(/C=N/Nc3nc(-c4ccc(Cl)cc4)cs3)c(-c3ccc(Cl)cc3)nc2s1 | 25 (≈ 51.5 µM) | 25 (≈ 51.5 µM) | 25 (≈ 51.5 µM) | – | –
22 | COc1ccc(-c2csc(N/N=C/c3c(-c4ccc(Cl)cc4)nc4sc(C(F)(F)F)nn34)n2)cc1 | 25 (≈ 46.7 µM) | 12.5 (≈ 23.4 µM) | 25 (≈ 46.7 µM) | 14.7 | –
23 | Cc1ccc(-c2csc(N/N=C/c3c(-c4ccc(Cl)cc4)nc4sc(C(F)(F)F)nn34)n2)cc1 | 25 (≈ 48.2 µM) | 25 (≈ 48.2 µM) | 25 (≈ 48.2 µM) | 19.6 | –
24 | COc1ccc(-c2nc3sc(C)nn3c2/C=N/Nc2nc(-c3ccc(Cl)cc3)cs2)cc1 | 12.5 (≈ 26 µM) | 6.25 (≈ 13 µM) | 12.5 (≈ 26 µM) | 12.7 | –
